In PubChem BioAssay (NCI):
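The compound was tested at five concentrations on cells cultured in 96-well plates, with a 48-hour exposure period. The concentration for full growth arrest is given as TGI.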

Tests used:
Assay in all cases: NCI tumour cell line growth inhibition, 48 h
SF-539 CNS = test system: SF-539 CNS
COLO 205 colon = test system: COLO 205 colon
BT-549 breast = test system: BT-549 breast
NCI/ADR-RES ovarian = test system: NCI/ADR-RES ovarian
RPMI-8226 leukemia = test system: RPMI-8226 leukemia
HT29 colon = test system: HT29 colon
MDA-MB-231 breast = test system: MDA-MB-231 breast
SK-MEL-2 melanoma = test system: SK-MEL-2 melanoma
UO-31 renal = test system: UO-31 renal
NCI-H226 lung = test system: NCI-H226 lung

## CCc1nnc(CC)n1NCCCC(=O)O
SF-539 CNS
  TGI: > 100 µM
COLO 205 colon
  TGI: > 100 µM
BT-549 breast
  TGI: > 100 µM
NCI/ADR-RES ovarian
  TGI: > 100 µM
RPMI-8226 leukemia
  TGI: > 100 µM
HT29 colon
  TGI: > 100 µM
MDA-MB-231 breast
  TGI: > 100 µM
SK-MEL-2 melanoma
  TGI: > 100 µM
UO-31 renal
  TGI: > 100 µM

## CC(=O)OCC(=O)[C@@]1(O)CC[C@H]2[C@@H]3CCC4=CC(=O)[C@H](C)C[C@]4(C)[C@H]3[C@@H](O)C[C@@]21C
SF-539 CNS
  TGI: > 100 µM
COLO 205 colon
  TGI: > 100 µM
RPMI-8226 leukemia
  TGI: > 100 µM
HT29 colon
  TGI: > 100 µM
NCI-H226 lung
  TGI: > 100 µM
SK-MEL-2 melanoma
  TGI: > 100 µM

## CC1CC2OC(=O)C3CC(O)CC(=C23)[C@@]12C[C@@H](c1ccoc1)OC2=O (stereo not given in full)
SF-539 CNS
  TGI: > 100 µM
COLO 205 colon
  TGI: > 100 µM
RPMI-8226 leukemia
  TGI: > 100 µM
HT29 colon
  TGI: > 100 µM
NCI-H226 lung
  TGI: > 100 µM
SK-MEL-2 melanoma
  TGI: > 100 µM
UO-31 renal
  TGI: > 100 µM

## O=C(O)c1c[nH]c2c(Sc3ccccc3)nccc2c1=O
SF-539 CNS
  TGI: > 100 µM
COLO 205 colon
  TGI: > 100 µM
BT-549 breast
  TGI: > 100 µM
NCI/ADR-RES ovarian
  TGI: > 100 µM
HT29 colon
  TGI: > 100 µM
NCI-H226 lung
  TGI: > 100 µM
MDA-MB-231 breast
  TGI: > 100 µM
SK-MEL-2 melanoma
  TGI: > 100 µM
UO-31 renal
  TGI: > 100 µM

## COc1ccc(/C=C2/C(C)=NN(c3cccc(Cl)c3)/C2=N/c2nc3ccccc3s2)cc1
SF-539 CNS
  TGI: 60.7 µM
NCI/ADR-RES ovarian
  TGI: 71.6 µM
RPMI-8226 leukemia
  TGI: 66.6 µM
HT29 colon
  TGI: 37.8 µM
NCI-H226 lung
  TGI: 56.4 µM
MDA-MB-231 breast
  TGI: 67.5 µM
SK-MEL-2 melanoma
  TGI: 41.8 µM
UO-31 renal
  TGI: 44.1 µM

## COc1ccc(C2c3cc4c(cc3C(O)C3CCC(=O)N23)OCO4)cc1 (stereo not given)
SF-539 CNS
  TGI: > 100 µM
COLO 205 colon
  TGI: > 100 µM
BT-549 breast
  TGI: > 100 µM
NCI/ADR-RES ovarian
  TGI: > 100 µM
RPMI-8226 leukemia
  TGI: > 100 µM
HT29 colon
  TGI: > 100 µM
NCI-H226 lung
  TGI: > 100 µM
SK-MEL-2 melanoma
  TGI: > 100 µM
UO-31 renal
  TGI: > 100 µM

## O=P(O)(OCC(O)O)OCC(O)O
SF-539 CNS
  TGI: > 100 µM
COLO 205 colon
  TGI: > 100 µM
RPMI-8226 leukemia
  TGI: > 100 µM
HT29 colon
  TGI: > 100 µM
SK-MEL-2 melanoma
  TGI: > 100 µM
UO-31 renal
  TGI: > 100 µM

## CCCCCCn1c(SCC)c2ccccc2c1-c1nc(F)nc(F)n1
SF-539 CNS
  TGI: > 100 µM
COLO 205 colon
  TGI: > 100 µM
RPMI-8226 leukemia
  TGI: > 100 µM
HT29 colon
  TGI: > 100 µM
NCI-H226 lung
  TGI: > 100 µM
SK-MEL-2 melanoma
  TGI: > 100 µM
UO-31 renal
  TGI: > 100 µM

## C/C(CN1C(=O)c2ccccc2C1=O)=N\NS(=O)(=O)c1ccc(Br)cc1
SF-539 CNS
  TGI: > 100 µM
COLO 205 colon
  TGI: > 100 µM
RPMI-8226 leukemia
  TGI: > 100 µM
HT29 colon
  TGI: > 100 µM
NCI-H226 lung
  TGI: > 100 µM
SK-MEL-2 melanoma
  TGI: > 100 µM
UO-31 renal
  TGI: > 100 µM

## NCCCCNCCCN1CC1
SF-539 CNS
  TGI: 2.59 µM
COLO 205 colon
  TGI: 3.71 µM
BT-549 breast
  TGI: 17.4 µM
RPMI-8226 leukemia
  TGI: > 100 µM
HT29 colon
  TGI: > 42 µM
NCI-H226 lung
  TGI: > 31.4 µM
UO-31 renal
  TGI: 12.8 µM

## CC(C)OP(=O)(OC(C)C)C(C(C)C)N(C)/C(N)=N\C1=NC(C(F)(F)F)(C(F)(F)F)N=C(C(C(F)(F)F)C(F)(F)F)O1 (stereo not given)
SF-539 CNS
  TGI: 11.8 µM
COLO 205 colon
  TGI: 3.64 µM
BT-549 breast
  TGI: 8.2 µM
RPMI-8226 leukemia
  TGI: 7.45 µM
HT29 colon
  TGI: 6.98 µM
NCI-H226 lung
  TGI: 5.05 µM
MDA-MB-231 breast
  TGI: 4.33 µM
SK-MEL-2 melanoma
  TGI: > 100 µM
UO-31 renal
  TGI: 16 µM

## O=C(O)C1CC2C3CCC2C1C3=O (stereo not given)
SF-539 CNS
  TGI: > 100 µM
COLO 205 colon
  TGI: > 100 µM
NCI/ADR-RES ovarian
  TGI: > 100 µM
HT29 colon
  TGI: > 100 µM
NCI-H226 lung
  TGI: > 100 µM
MDA-MB-231 breast
  TGI: > 100 µM
SK-MEL-2 melanoma
  TGI: > 100 µM
UO-31 renal
  TGI: > 100 µM

## Cn1c(O)c(C(=O)Nc2cccs2)c(=O)[nH]c1=S
SF-539 CNS
  TGI: 30.3 µM
COLO 205 colon
  TGI: 30.2 µM
RPMI-8226 leukemia
  TGI: 49.1 µM
HT29 colon
  TGI: 34 µM
NCI-H226 lung
  TGI: 42.6 µM
SK-MEL-2 melanoma
  TGI: 30.4 µM
UO-31 renal
  TGI: 34.1 µM

## NC(=S)NNC(=O)/C(=C/c1ccc(/C=C(\NC(=O)c2ccccc2)C(=O)NNC(N)=S)cc1)NC(=O)c1ccccc1
SF-539 CNS
  TGI: > 100 µM
COLO 205 colon
  TGI: > 100 µM
RPMI-8226 leukemia
  TGI: > 70.2 µM
HT29 colon
  TGI: > 100 µM
NCI-H226 lung
  TGI: > 100 µM
SK-MEL-2 melanoma
  TGI: > 100 µM
UO-31 renal
  TGI: > 100 µM

## COc1ccc(OC)c2sc(N3C(=O)/C(=C/Cc4ccco4)N=C3c3ccccc3)nc12
SF-539 CNS
  TGI: > 100 µM
COLO 205 colon
  TGI: > 100 µM
BT-549 breast
  TGI: > 100 µM
NCI/ADR-RES ovarian
  TGI: > 100 µM
RPMI-8226 leukemia
  TGI: > 100 µM
HT29 colon
  TGI: > 100 µM
MDA-MB-231 breast
  TGI: > 100 µM
SK-MEL-2 melanoma
  TGI: 67.3 µM
UO-31 renal
  TGI: 80.8 µM

## CCOC(=O)CCC(NC(=O)Cc1ccc(Nc2nc3ccccc3nc2-c2ccccc2)cc1)C(=O)OCC (stereo not given)
SF-539 CNS
  TGI: > 100 µM
COLO 205 colon
  TGI: > 100 µM
BT-549 breast
  TGI: > 100 µM
NCI/ADR-RES ovarian
  TGI: > 100 µM
HT29 colon
  TGI: > 100 µM
NCI-H226 lung
  TGI: > 100 µM
MDA-MB-231 breast
  TGI: 53.3 µM
SK-MEL-2 melanoma
  TGI: 72.7 µM
UO-31 renal
  TGI: > 100 µM

## COc1cc(/C=C/C(=O)c2sc(-n3nc(-c4ccccc4)cc3-c3ccccc3)nc2C)ccc1O
SF-539 CNS
  TGI: > 100 µM
COLO 205 colon
  TGI: > 100 µM
RPMI-8226 leukemia
  TGI: > 100 µM
NCI-H226 lung
  TGI: > 100 µM
SK-MEL-2 melanoma
  TGI: > 100 µM
UO-31 renal
  TGI: > 100 µM

## Fc1c(F)c(C(F)(F)F)c(F)c(F)c1N/N=C\c1c[nH]c2ccccc12
COLO 205 colon
  TGI: 2.71 µM
BT-549 breast
  TGI: 7.09 µM
NCI/ADR-RES ovarian
  TGI: 5.84 µM
RPMI-8226 leukemia
  TGI: 10.2 µM
HT29 colon
  TGI: 6.46 µM
MDA-MB-231 breast
  TGI: 12.7 µM
SK-MEL-2 melanoma
  TGI: 8.81 µM
UO-31 renal
  TGI: 3.85 µM

## CC(C)=CCCC1(C)C=Cc2c(c(C)cc3c2[nH]c2cc(O)ccc23)O1 (stereo not given)
SF-539 CNS
  TGI: > 25 µM
COLO 205 colon
  TGI: > 25 µM
RPMI-8226 leukemia
  TGI: > 25 µM
HT29 colon
  TGI: > 25 µM
NCI-H226 lung
  TGI: > 25 µM
SK-MEL-2 melanoma
  TGI: > 25 µM
UO-31 renal
  TGI: > 25 µM
